Where a name gives a salt, the structure may show the parent alone.

One data set relates to Candida albicans. The data set is described as follows: minimum inhibitory concentration, antimicrobial spectrum (Table I). The data set is classed as cell-based. The note with it: 32 P.P.M. As for the experimental part: (§1) The compounds listed in Table I below were tested for their antibacterial spectrum by the method of:
(§2) Silverblatt, F. and M. Turck, 1969. Antimicrobial Agents and Chemothreapy; 1968, p. 279-285.
(§3) Wallace, J. F., E. Atlas, D. M. Bear, N. K. Brown, H. Clark and M. Turk, 1971. Antimicrobial Agents and Chemotherapy; 1970, p. 223-266.

The next data set deals with Staphylococcus aureus. The data set is described as follows: minimum inhibitory concentration, antibacterial spectrum (Table I). It is filed as cell-based. As to conditions: 32 P.P.M. As for the experimental part: as §1, §2, §3
The next data set has as its system Pseudomonas aeruginosa. The data set is described as above. The data set is classed as cell-based. As to conditions: 32 P.P.M. As for the experimental part:
as §1, §2, §3

Another data set concerns Escherichia coli. The description is as above. The data set is classed as cell-based. As to conditions: 32 P.P.M. As for the experimental part:
as §1, §2, §3

The subject of a further data set is Diplococcus pneumoniae. The data set is described as follows: minimum inhibitory concentration / in vitro spectrum of activity. The note with it: Streptococcus pneumoniae, footnote of Table I. The data set is classed as cell-based. On the procedure: as §1, §2, §3
Another data set concerns Salmonella typhosa. Described as above. The data set is classed as cell-based. As to conditions: Salmonella enterica, read-out: minimum inhibitory concentration (MIC). As for the experimental part:
as §1, §2, §3

The next data set deals with Klebsiella pneumonia. The data set is described as above. It is filed as cell-based. The note with it: Klebsiella pneumoniae, footnote of Table I. On the procedure:
as §1, §2, §3

The test system of the next data set is Streptococcus pyogenes. The data set is described as above. It is filed as cell-based. As to conditions: footnote of Table I. On the procedure:
as §1, §2, §3

Data set [1] can be described thus: LD50 upon oral administration to mice. As to conditions: mouse, in vivo.

On to `Cc1ccc2nc(NC(=N)NCCCCCNC(=N)Nc3nc4ccc(C)cc4[nH]3)[nH]c2c1` [Compound 1074, N'-N"-bis-[2-(6-methylbenzimidazole)]-2,8-diazanonane diimidamide dihydrochloride hemipentahydrate], for which the MIC worked out at 16 µg/mL in the data set on Candida albicans, 8 µg/mL against Staphylococcus aureus, 8 µg/mL with Pseudomonas aeruginosa and 4 µg/mL against Escherichia coli.

In the data set with Escherichia coli, `N=C(NCCNC(=N)Nc1nc2ccccc2[nH]1)Nc1nc2ccccc2[nH]1` [Compound 1069, N'-N"-bis[2-benzimidazole]-2,5-diazahexane diimidamide dihydrochloride] gave an MIC of 32 µg/mL.

For the compound `N=C(NCCCCCCNC(=N)Nc1nc2ccccc2[nH]1)Nc1nc2ccccc2[nH]1` [Compound 1024, N'-N"-bis-[2-benzimidazole]-2,9-diazadecane diimidamide dihydrochloride], the MIC against Staphylococcus aureus was determined as 4 µg/mL; in the data set with Pseudomonas aeruginosa, 16 µg/mL; against Escherichia coli it was 4 µg/mL; with Diplococcus pneumoniae, 2 µg/mL; with Salmonella typhosa it was 4 µg/mL; with Klebsiella pneumonia it was 500 µg/mL. Moreover, the MIC against Streptococcus pyogenes came to 1 µg/mL. Also, the LD50 – broadly, the dose expected to kill half of the subjects tested – in data set [1] came out at 4000 mg/kg.

In the case of `Cc1ccc2nc(NC(=N)NCCNC(=N)Nc3nc4ccc(C)cc4[nH]3)[nH]c2c1` [Compound 1072, N'-N"-bis-[2-(6-methylbenzimidazole)]-2,5-diazahexane diimidamide dihydrochloride monohydrate], the MIC in the data set with Staphylococcus aureus was 16 µg/mL; with Pseudomonas aeruginosa, 16 µg/mL; against Escherichia coli, 4 µg/mL.

Take `Cc1ccc2nc(NC(=N)NCCCCCCNC(=N)Nc3nc4ccc(C)cc4[nH]3)[nH]c2c1` [Compound 1081, N'-N"-bis-[2-(6-methyl-benzimidazole)]-2,9-diazadecane diimidamide dihydrochloride dihydrate]: the MIC in the data set with Candida albicans was found to be 8 µg/mL; in the data set on Staphylococcus aureus it was 1 µg/mL; against Pseudomonas aeruginosa it was 8 µg/mL; against Escherichia coli, 1 µg/mL.

`N=C(NCCCCCCCCNC(=N)Nc1nc2ccccc2[nH]1)Nc1nc2ccccc2[nH]1` [Compound 1080, N'-N"-bis-[2-benzimidazole]-2,11-diazadodecane diimidamide dihydrochloride dihydrate]: the MIC in the data set on Staphylococcus aureus and against Escherichia coli was 1 µg/mL throughout.

`N=C(NCCCCCNC(=N)Nc1nc2ccccc2[nH]1)Nc1nc2ccccc2[nH]1` [Compound 1079, N'-N"-bis-[2-benzimidazole]-2,8-diazanonane diimidamide dihydrochloride dihydrate]: the MIC in the data set on Staphylococcus aureus and against Escherichia coli was 8 µg/mL each time.

For the compound `N=C(NCCNC(=N)Nc1nc2ccc(Cl)cc2[nH]1)Nc1nc2ccc(Cl)cc2[nH]1` [Compound 1105, N'-N"-bis-[2-(6-chlorobenzimidazole)]-2,5-diazahexanediimidamide dihydrochloride sesquihydrate], in the data set on Staphylococcus aureus, the MIC was 5 µg/mL.

On to `N=C(NCCCCCNC(=N)Nc1nc2ccc(Cl)cc2[nH]1)Nc1nc2ccc(Cl)cc2[nH]1` [Compound 1075, N'-N"-bis-[2-(6-chlorobenzimidazole)]-2,8,diazanonane diimidamide dihydrochloride hydrate], for which the MIC against Staphylococcus aureus and in the data set on Escherichia coli was 2 µg/mL each time.

For the compound `N=C(NCCCCCCCNC(=N)Nc1nc2ccccc2[nH]1)Nc1nc2ccccc2[nH]1` [Compound 1046, N'-N"-bis-[2-benzimidazole]-2,10-diazaundecane diimidamide dihydrochloride], the figures for the MIC with Candida albicans, with Staphylococcus aureus and in the data set with Escherichia coli were 16 µg/mL, 8 µg/mL and 8 µg/mL, respectively.

Turning to `N=C(NCCCCCCNC(=N)Nc1nc2cc(Cl)c(S(N)(=O)=O)cc2[nH]1)Nc1nc2cc(Cl)c(S(N)(=O)=O)cc2[nH]1` [Compound 1045, N'-N"-bis-[2-(5'-chloro-6'-sulfamylbenzimidazole)]-2,9-diazadecane diimidamide dihydrochloride], in the data set on Escherichia coli, the MIC was 8 µg/mL.

The record behind these values is US4395552A, “Antimicrobial bis-imidazolo-pyridine compound” (The Purdue Frederick Company, priority 1980, dated 1983).
